The values that follow come from US20250152584A1, “NLRP3 INFLAMMASOME INHIBITOR AND USES THEREOF” (TransThera Sciences (Nanjing), Inc., priority 2022, published 2025).

The target of data set [1] is T1, hERG potassium ion channel (Homo sapiens, UniProt Q12809).
T1 construct: expressed in transfected cells
Description: Inhibition of hERG potassium ion channels, manual patch-clamp in HEK-293 cells. In kind it is cell-based. The settings on record: HEK-293 cells stably expressing hERG, whole-cell manual patch-clamp, room temperature. The protocol:
Experimental Example 5: Test for Inhibition of hERG Potassium Ion Channels by Compound
Experimental Objective: To study the inhibitory effect of the compound on hERG potassium ion channels by a manual patch-clamp technique. […]
• 2.1 Blank control: DMSO stock. • 2.2 Positive control: 10 mM stock formulated from a appropriate amount of Cisapride and dimethyl sulfoxide (DMSO). The stock was aliquoted and stored at −20° C. • 2.3 Compound: An appropriate amount of compound was weighed; the volume of DMSO required was calculated according to the formula: DMSO volume=actual amount×purity (content)/(molecular weight×theoretical concentration), and the corresponding volume of DMSO was pipetted; then, the weighed compound was dissolved with the pipetted DMSO, and the mass of DMSO was measured at the same time; and finally, the actual stock concentration was calculated according to the final amount of DMSO used. […]
(The hERG channel carries a current that helps repolarise heart muscle cells.)

A short description of data set [2]: Pharmacokinetic study in beagles. The data set is classed as in vivo. The settings on record: beagle, dog, plasma, male beagles. The protocol:
Experimental Example 4: Pharmacokinetic Study of Compounds in Beagles
Compound 174 was prepared into a solution with a mixed solvent formulated from 5% dimethyl sulfoxide, 20% (30% solutol) and 75% normal saline; the solution of this compound was administered to male beagles by gavage at a dose of 1.0 mg/kg; and the time points for blood collection were: 15 min, 30 min, 1 b, 2 h, 4 h, 6 b, 8 h, 10 h and 24 h. The solution of the compound was administered to male beagles by intravenous bolus at a dose of 1.0 mg/kg, and the time points for blood collection were as follows: 5 min, 15 min, 30 min, 1 h, 2 h, 4 h, 6 h, 8 h, 10 h, and 24 h.
Compound 177 and Compound 195 were prepared into solutions with a mixed solvent formulated from 5% dimethyl sulfoxide, 20% (30% solutol) and 75% normal saline, respectively; the solutions of these compounds were administered to male beagles by gavage at a dose of 1.0 mg/kg; and the time points for blood collection were: 15 min, 30 min, 1 h, 2 h, 4 h, 6 h, 8 h, 10 h and 24 h. The solution of the compound was administered to male beagles by intravenous bolus at a dose of 1.0 mg/kg, and the time points for blood collection were as follows: 5 min, 15 min, 30 min, 1 h, 2 h, 4 h, 6 h, 8 h, 10 h, and 24 h.
Approximately 400 μL of blood was collected through the medial cephalic vein of the forelimb and placed in an anticoagulant tube containing EDTA-K2. Blood samples were centrifuged at 12,000 rpm for 10 min at 4° C. to obtain plasma samples, and plasma was prepared within 30 min after blood collection. The plasma was stored in a −80° C. freezer before testing.

Where two headings read alike, the source gives them in different places. Bounds are passed on as bounds.

T1 sequence (Q12809 whole entry): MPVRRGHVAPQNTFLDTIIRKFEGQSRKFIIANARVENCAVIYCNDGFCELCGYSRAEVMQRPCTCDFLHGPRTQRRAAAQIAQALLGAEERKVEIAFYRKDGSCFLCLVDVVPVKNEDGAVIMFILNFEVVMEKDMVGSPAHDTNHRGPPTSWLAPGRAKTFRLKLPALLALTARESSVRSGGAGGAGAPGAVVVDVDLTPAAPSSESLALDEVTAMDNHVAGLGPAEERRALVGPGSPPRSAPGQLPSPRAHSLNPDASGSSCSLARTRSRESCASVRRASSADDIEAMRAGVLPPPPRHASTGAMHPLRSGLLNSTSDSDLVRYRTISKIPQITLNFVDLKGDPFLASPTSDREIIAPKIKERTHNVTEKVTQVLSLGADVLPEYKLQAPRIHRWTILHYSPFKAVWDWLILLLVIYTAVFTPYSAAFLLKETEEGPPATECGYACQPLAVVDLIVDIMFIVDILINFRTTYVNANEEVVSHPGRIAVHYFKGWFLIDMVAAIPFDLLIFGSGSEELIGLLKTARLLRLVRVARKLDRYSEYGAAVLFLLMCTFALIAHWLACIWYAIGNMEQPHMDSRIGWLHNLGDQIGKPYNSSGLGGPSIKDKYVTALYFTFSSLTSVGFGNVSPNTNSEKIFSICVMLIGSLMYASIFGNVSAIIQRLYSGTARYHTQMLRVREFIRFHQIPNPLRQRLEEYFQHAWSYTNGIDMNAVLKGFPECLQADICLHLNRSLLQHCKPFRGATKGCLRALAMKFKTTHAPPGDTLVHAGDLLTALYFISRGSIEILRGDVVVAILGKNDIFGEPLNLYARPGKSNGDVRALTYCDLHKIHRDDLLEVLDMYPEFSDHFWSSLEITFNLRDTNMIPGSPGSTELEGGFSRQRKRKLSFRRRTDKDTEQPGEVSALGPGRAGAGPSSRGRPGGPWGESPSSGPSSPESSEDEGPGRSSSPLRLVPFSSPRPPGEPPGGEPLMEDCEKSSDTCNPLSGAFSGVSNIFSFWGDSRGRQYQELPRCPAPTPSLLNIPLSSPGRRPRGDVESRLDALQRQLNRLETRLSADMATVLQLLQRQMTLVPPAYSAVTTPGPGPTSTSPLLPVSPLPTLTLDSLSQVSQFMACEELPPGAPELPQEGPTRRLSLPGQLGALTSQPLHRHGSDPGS

For orientation: IC50 means the point on the concentration scale where inhibition reaches its midpoint. A low value points to higher potency. Take `C#Cc1ccc(-c2nnc(N[C@@H]3CCCN(C)C3)cc2C)c(O)c1` [Compound 54, (R)-5-ethynyl-2-(4-methyl-6-((1-methylpiperidin-3-yl)amino)pyridazin-3-yl)phenol]: the concentration for half-maximal inhibition (IC50) in data set [1] was over 10 µM.

In general, clearance refers to a measure of how efficiently the substance is removed, as volume per time. As a reminder, the bioavailability is dose-corrected exposure relative to a reference, in per cent. On to `CC#Cc1ccc(-c2nnc(N[C@@H]3CCCN(C)C3)cc2C)c(O)c1` [Compound 174, (R)-2-(4-methyl-6-((1-methylpiperidin-3-yl)amino)pyridazin-3-yl)-5-(prop-1-yn-1-yl)phenol], for which the AUC(0-t) in data set [2] (po, gavage 1.0 mg/kg, read-out: AUClast po (area under the drug-time curve for 0-24 h)) came to 1660 ng·h/mL; in data set [2] (intravenous bolus 1.0 mg/kg, read-out: AUClast iv (area under the drug-time curve for 0-24 h)), 1980 ng·h/mL. In data set [2] (po, gavage 1.0 mg/kg, read-out: Cmax po (peak concentration)), the Cmax amounted to 105 ng/mL. In addition, the Tmax in data set [2] (po, gavage 1.0 mg/kg, read-out: Tmax po (peak time of plasma concentration)) came to 4 h. Besides, the half-life in data set [2] (po, gavage 1.0 mg/kg, read-out: tz1/2 po (terminal elimination half-life) (converted)) is 14.7 h; in data set [2] (intravenous bolus 1.0 mg/kg, read-out: tz1/2 iv (terminal elimination half-life) (converted)), 15.8 h. For the same compound, the clearance in data set [2] (intravenous bolus 1.0 mg/kg, read-out: Cl—obs iv (clearance rate) (converted)) is 5.53 mL/min/kg. Moreover, the Vd in data set [2] (intravenous bolus 1.0 mg/kg, read-out: Vss iv (volume of distribution)) worked out at 7.39 L/kg. For the same compound, the bioavailability in data set [2] (iv 1.0 mg/kg / po 1.0 mg/kg, read-out: F % (absolute bioavailability)) is 83.8%.
